# Reference: paper PMC12016938, “A small molecule PKCε inhibitor reduces hyperalgesia induced by paclitaxel or opioid withdrawal” (JCI Insight, 2025)
# Several values for one entry are separate records, joined by “and”; a condition that tells them apart may be missing. Equal entries are not always repeated. Where two headings read alike, the source gives them in different places.
# Columns and labels:
# [1] = molecular target: ROCK1 (Homo sapiens, UniProt Q13464); experiment: scanMax kinome panel, ROCK1; type: binding; design: purchased Eurofins-DiscoverX; conditions: 200 nM CP612
# Procedure: CP612 was screened for kinome specificity at 200 nM against 468 kinases using the scanMax assay panel from Eurofins-DiscoverX. CP612 inhibited 10 other WT kinases besides PKCε, all to < 10% of control: CLK1 (CDC Like Kinase 1), CLK4, PKN1 (Protein kinase N1), PKN2, PKCδ, PKCη, PKCθ, PRKG2 (Protein Kinase CGMP-Dependent 2), ROCK1, and ROCK2.
# [2] = system: morphine self-administration;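 note: rats trained to self-administer intravenous morphine at 500 µg/kg per infusion, first under FR1 then FR3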
# [3] = Plasma stability; conditions: for % Absolute: human plasma (hPL); for half-life: human
# Procedure: Plasma stability. To determine in vitro plasma stability, we calculated in vitro plasma half-life. We incubated test substances (0.6 μL) with 60 μL human plasma (BioIVT) in quadruplicate at 37°C.
# Sequence of ROCK1 (Q13464 whole entry): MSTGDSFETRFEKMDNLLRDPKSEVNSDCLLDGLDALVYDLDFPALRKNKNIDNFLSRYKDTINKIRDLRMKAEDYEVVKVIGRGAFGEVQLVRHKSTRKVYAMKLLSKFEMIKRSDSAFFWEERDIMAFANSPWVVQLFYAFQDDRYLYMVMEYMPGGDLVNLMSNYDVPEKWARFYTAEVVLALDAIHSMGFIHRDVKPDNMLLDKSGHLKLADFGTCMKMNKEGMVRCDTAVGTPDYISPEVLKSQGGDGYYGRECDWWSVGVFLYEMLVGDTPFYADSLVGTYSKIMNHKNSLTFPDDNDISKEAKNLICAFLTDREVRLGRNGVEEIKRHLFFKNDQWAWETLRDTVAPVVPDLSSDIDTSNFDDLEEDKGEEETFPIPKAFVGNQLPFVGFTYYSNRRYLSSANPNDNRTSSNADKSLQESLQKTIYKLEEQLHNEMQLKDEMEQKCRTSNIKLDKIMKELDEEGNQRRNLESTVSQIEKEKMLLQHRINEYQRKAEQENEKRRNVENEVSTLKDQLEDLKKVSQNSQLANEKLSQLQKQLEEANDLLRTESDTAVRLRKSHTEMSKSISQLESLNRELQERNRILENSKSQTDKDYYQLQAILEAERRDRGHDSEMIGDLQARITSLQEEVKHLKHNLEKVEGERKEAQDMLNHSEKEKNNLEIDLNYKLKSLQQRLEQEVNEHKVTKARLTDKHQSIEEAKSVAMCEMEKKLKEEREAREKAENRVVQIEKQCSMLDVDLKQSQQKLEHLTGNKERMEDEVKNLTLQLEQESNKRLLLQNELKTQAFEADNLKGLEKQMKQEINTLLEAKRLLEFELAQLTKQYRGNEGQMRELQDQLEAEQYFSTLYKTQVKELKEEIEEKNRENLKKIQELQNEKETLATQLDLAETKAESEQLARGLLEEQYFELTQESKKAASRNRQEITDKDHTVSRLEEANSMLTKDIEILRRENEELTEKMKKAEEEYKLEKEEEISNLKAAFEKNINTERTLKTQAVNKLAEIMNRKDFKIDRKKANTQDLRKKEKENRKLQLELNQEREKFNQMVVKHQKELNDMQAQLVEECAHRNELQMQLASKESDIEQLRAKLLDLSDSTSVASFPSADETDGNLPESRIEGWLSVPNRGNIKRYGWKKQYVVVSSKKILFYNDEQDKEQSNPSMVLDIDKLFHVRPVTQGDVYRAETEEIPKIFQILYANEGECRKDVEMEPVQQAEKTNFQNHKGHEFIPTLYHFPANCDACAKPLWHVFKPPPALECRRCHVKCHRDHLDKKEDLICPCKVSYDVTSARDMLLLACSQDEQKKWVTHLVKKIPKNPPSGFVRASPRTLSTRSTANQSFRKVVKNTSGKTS
compound,measurement,setting,value
N[C@H](CNC(=O)C1(c2ccc(Cl)cc2)CCCC1)c1ccc(C(=O)Nc2ccncc2)cc1 [CP612],"scanMax % of control, ROCK1",[1],< 10 % of control
same,D10 BP (PR1),"[2]; BP, Day 10, progressive ratio PR1, CP612 6 hours prior, group mean, n=7",25.57
same,D12 BP (PR2_WD),"[2]; BP, Day 12, progressive ratio PR2 withdrawal, CP612 6 hours prior, group mean, n=6",21.67
same,D13 BP (PR3_Nal),"[2]; BP, Day 13, progressive ratio PR3_Nal, CP612 6 hours prior, group mean, n=7",17.57
same,D12 BP (PR2_WD),"[2]; BP, PR2_WD, day 12, individual rats",40 and 15 and 20
same,Effect on morphine intake or responding (infusions and breaking point),"[2]; CP612 30 mg/kg i.p. 6 hours prior, progressive ratio tests 1-3",did not modify morphine intake or responding
same,D1 AH (FR1),"[2]; active hole responses, Day 1, fixed ratio 1, mean of CP612 group, n=7",16.14
same,D2 AH (FR1),"[2]; active hole responses, Day 2, fixed ratio 1, mean of CP612 group, n=7",13.86
same,D3 AH (FR1),"[2]; active hole responses, Day 3, fixed ratio 1, mean of CP612 group, n=7",16.29
same,D4 AH (FR1),"[2]; active hole responses, Day 4, fixed ratio 1, mean of CP612 group, n=7",14.57
same,D4 AH (FR3),"[2]; active hole responses, Day 4, fixed ratio 3, mean of CP612 group, n=7",14.57
same,D5 AH (FR3),"[2]; active hole responses, Day 5, fixed ratio 3, mean of CP612 group, n=7",25.86
same,D6 AH (FR3),"[2]; active hole responses, Day 6, fixed ratio 3, mean of CP612 group, n=7",25.71
same,D7 AH (FR3),"[2]; active hole responses, Day 7, fixed ratio 3, mean of CP612 group, n=7",27.86
same,D8 AH (FR3),"[2]; active hole responses, Day 8, fixed ratio 3, mean of CP612 group, n=7",35.00
same,D9 AH (FR3),"[2]; active hole responses, Day 9, fixed ratio 3, mean of CP612 group, n=7",37.86
same,D10 AH (PR1),"[2]; active hole responses, Day 10, PR1, CP612 6 hours prior, group mean, n=7",119.00
same,D12 AH (PR2_WD),"[2]; active hole responses, Day 12, PR2 withdrawal, CP612 6 hours prior, group mean, n=6",99.33
same,D13 AH (PR3_Nal),"[2]; active hole responses, Day 13, PR3_Nal, CP612 6 hours prior, group mean, n=7",78.29
same,AH (avg all),"[2]; active hole responses, average of all days D1-D9, mean of CP612 group, n=7",23.68
same,AH (avg last 3 days),"[2]; active hole responses, average of last 3 days, mean of CP612 group, n=7",33.57
same,D1 IH (FR1),"[2]; inactive hole responses, Day 1, fixed ratio 1, mean of CP612 group, n=7",7.43
same,D2 IH (FR1),"[2]; inactive hole responses, Day 2, fixed ratio 1, mean of CP612 group, n=7",12.14
same,D3 IH (FR1),"[2]; inactive hole responses, Day 3, fixed ratio 1, mean of CP612 group, n=7",12.43
same,D4 IH (FR1),"[2]; inactive hole responses, Day 4, fixed ratio 1, mean of CP612 group, n=7",8.71
same,D4 IH (FR3),"[2]; inactive hole responses, Day 4, fixed ratio 3, mean of CP612 group, n=7",8.71
same,D5 IH (FR3),"[2]; inactive hole responses, Day 5, fixed ratio 3, mean of CP612 group, n=7",13.86
same,D6 IH (FR3),"[2]; inactive hole responses, Day 6, fixed ratio 3, mean of CP612 group, n=7",7.43
same,D7 IH (FR3),"[2]; inactive hole responses, Day 7, fixed ratio 3, mean of CP612 group, n=7",4.57
same,D8 IH (FR3),"[2]; inactive hole responses, Day 8, fixed ratio 3, mean of CP612 group, n=7",6.43
same,D9 IH (FR3),"[2]; inactive hole responses, Day 9, fixed ratio 3, mean of CP612 group, n=7",5.57
same,D10 IH (PR1),"[2]; inactive hole responses, Day 10, PR1, CP612 6 hours prior, group mean, n=7",13.00
same,D12 IH (PR2_WD),"[2]; inactive hole responses, Day 12, PR2 withdrawal, CP612 6 hours prior, group mean, n=6",10.67
same,D13 IH (PR3_Nal),"[2]; inactive hole responses, Day 13, PR3_Nal, CP612 6 hours prior, group mean, n=7",8.86
same,D9 IH (avg all),"[2]; inactive hole responses, average of all days D1-D9, mean of CP612 group, n=7",8.73
same,D9 IH (avg last 3 days),"[2]; inactive hole responses, average of last 3 days, mean of CP612 group, n=7",5.52
same,D10 AH (PR1) Log,"[2]; log of active hole responses, Day 10, PR1, CP612 6 hours prior, group mean, n=7",2.04
same,D12 AH (PR2_WD) Log,"[2]; log of active hole responses, Day 12, PR2 withdrawal, CP612 6 hours prior, group mean, n=6",1.94
same,D13 AH (PR3_Nal) Log,"[2]; log of active hole responses, Day 13, PR3_Nal, CP612 6 hours prior, group mean, n=7",1.85
same,D10 IH (PR1) Log,"[2]; log of inactive hole responses, Day 10, PR1, CP612 6 hours prior, group mean, n=7",1.03
same,D12 IH (PR2_WD) Log,"[2]; log of inactive hole responses, Day 12, PR2 withdrawal, CP612 6 hours prior, group mean, n=6",0.89
same,D13 IH (PR3_Nal) Log,"[2]; log of inactive hole responses, Day 13, PR3_Nal, CP612 6 hours prior, group mean, n=7",0.88
same,D10 Inf (PR1) Log,"[2]; log of infusions, Day 10, PR1, CP612 6 hours prior, group mean, n=7",0.94
same,D12 Inf (PR2_WD) Log,"[2]; log of infusions, Day 12, PR2 withdrawal, CP612 6 hours prior, group mean, n=6",0.91
same,D13 Inf (PR3_Nal) Log,"[2]; log of infusions, Day 13, PR3_Nal, CP612 6 hours prior, group mean, n=7",0.85
same,D12 Inf (PR2_WD) Log,"[2]; log of infusions, PR2_WD, day 12, individual rats",1.04 and 0.85 and 0.90
same,D10 Latency (PR1) Log,"[2]; log of latency, Day 10, PR1, CP612 6 hours prior, group mean, n=7",-0.40
same,D12 Latency (PR2_WD) Log,"[2]; log of latency, Day 12, PR2 withdrawal, CP612 6 hours prior, group mean, n=6",-0.00262
same,D13 Latency (PR3_Nal) Log,"[2]; log of latency, Day 13, PR3_Nal, CP612 6 hours prior, group mean, n=7",-0.48
same,D2 Inf (FR1),"[2]; morphine infusions, Day 2, fixed ratio 1, mean of CP612 group, n=7",10.71
same,D3 Inf (FR1),"[2]; morphine infusions, Day 3, fixed ratio 1, mean of CP612 group, n=7",10.86
same,D4 Inf (FR1),"[2]; morphine infusions, Day 4, fixed ratio 1, mean of CP612 group, n=7",11.00
same,D4 Inf (FR3),"[2]; morphine infusions, Day 4, fixed ratio 3, mean of CP612 group, n=7",11.00
same,D5 Inf (FR3),"[2]; morphine infusions, Day 5, fixed ratio 3, mean of CP612 group, n=7",6.43
same,D6 Inf (FR3),"[2]; morphine infusions, Day 6, fixed ratio 3, mean of CP612 group, n=7",7.14
same,D7 Inf (FR3),"[2]; morphine infusions, Day 7, fixed ratio 3, mean of CP612 group, n=7",7.71
same,D8 Inf (FR3),"[2]; morphine infusions, Day 8, fixed ratio 3, mean of CP612 group, n=7",9.57
same,D9 Inf (FR3),"[2]; morphine infusions, Day 9, fixed ratio 3, mean of CP612 group, n=7",10.29
same,D10 Inf (PR1),"[2]; morphine infusions, Day 10, progressive ratio test PR1, CP612 6 hours prior, group mean, n=7",8.86
same,D12 Inf (PR2_WD),"[2]; morphine infusions, Day 12, progressive ratio test PR2 in withdrawal, CP612 6 hours prior, group mean, n=6",8.17
same,D13 Inf (PR3_Nal),"[2]; morphine infusions, Day 13, progressive ratio test PR3_Nal, CP612 6 hours prior, group mean, n=7",7.29
same,Inf (avg all),"[2]; morphine infusions, average of all self-administration days D1-D9, mean of CP612 group, n=7",9.33
same,Inf (avg last 3 days),"[2]; morphine infusions, average of last 3 days, mean of CP612 group, n=7",9.19
same,D12 Inf (PR2_WD),"[2]; morphine infusions, progressive ratio session PR2_WD, day 12, individual rats",11 and 7 and 8
same,D1 Inf (FR1),"[2]; morphine infusions, self-administration Day 1, fixed ratio 1, mean of CP612 group, n=7",10.29
same,D1 Latency (FR1),"[2]; time to first infusion, Day 1, fixed ratio 1, mean of CP612 group, n=7",3.00 min
same,D2 Latency (FR1),"[2]; time to first infusion, Day 2, fixed ratio 1, mean of CP612 group, n=7",1.98 min
same,D3 Latency (FR1),"[2]; time to first infusion, Day 3, fixed ratio 1, mean of CP612 group, n=7",0.73 min
same,D4 Latency (FR3),"[2]; time to first infusion, Day 4, fixed ratio 3, mean of CP612 group, n=7",0.44 min
same,D5 Latency (FR3),"[2]; time to first infusion, Day 5, fixed ratio 3, mean of CP612 group, n=7",0.20 min
same,D6 Latency (FR3),"[2]; time to first infusion, Day 6, fixed ratio 3, mean of CP612 group, n=7",0.53 min
same,D7 Latency (FR3),"[2]; time to first infusion, Day 7, fixed ratio 3, mean of CP612 group, n=7",0.53 min
same,D8 Latency (FR3),"[2]; time to first infusion, Day 8, fixed ratio 3, mean of CP612 group, n=7",0.46 min
same,D9 Latency (FR3),"[2]; time to first infusion, Day 9, fixed ratio 3, mean of CP612 group, n=7",0.44 min
same,D10 Latency (PR1),"[2]; time to first infusion, Day 10, PR1, CP612 6 hours prior, group mean, n=7",0.60 min
same,D12 Latency (PR2_WD),"[2]; time to first infusion, Day 12, PR2 withdrawal, CP612 6 hours prior, group mean, n=6",1.44 min
same,D13 Latency (PR3_Nal),"[2]; time to first infusion, Day 13, PR3_Nal, CP612 6 hours prior, group mean, n=7",0.75 min
same,D9 Latency (avg all),"[2]; time to first infusion, average of all days D1-D9, mean of CP612 group, n=7",0.92 min
same,D9 Latency (avg last 3 days),"[2]; time to first infusion, average of last 3 days, mean of CP612 group, n=7",0.48 min
same,Plasma stability (in words),[3]; human plasma,good
same,% Absolute,"[3]; time 0 min, individual replicates",98.366% and 71.452% and 77.756%
same,% Absolute,"[3]; time 15 min, individual replicates",34.724% and 41.198% and 31.011%
same,% Absolute,"[3]; time 30 min, individual replicates",46.894% and 51.340% and 53.939%
same,% Absolute,"[3]; time 60 min, individual replicates",48.950% and 36.305% and 40.476%
same,Plasma stability Cl,"[3]; human plasma, 37°C",0.46 ± 0.04 µL/min
same,Cl (clearance),"[3]; human plasma, individual replicates",0.504 and 0.448 and 0.437
same,t1/2 (half life),"[3]; human plasma, individual replicates, time axis in min, in min",92.829 and 95.187
same,k,"[3]; human plasma, slope of Ln Transform vs Time (min), individual replicates",-0.008 and -0.00747 and -0.007
same,half-life,"[3]; human plasma, Plasma stability t½ (min), 37°C",1.5 ± 0.113 h
same,half-life,"[3]; plasma, t1/2 (half life), Mean, human plasma, mean of replicates, time axis in min",1.5 h
same,half-life,"[3]; plasma, t1/2 (half life), human plasma, individual replicates, time axis in min",1.37 h
